Results reported in PubChem BioAssay AID977606 (Broad Institute, 2014).
Values joined by “and” are separate entries in the source; they are usually repeats but may differ in a detail not shown here. Equal entries are not always repeated. Active and inactive are the calls of the source. The rule behind the calls is not given here.

What follows are molecules tested on INS-1E Gaussia luciferase insulin secretion, no glucose, luminescence (assay: insulin secretion activators without glucose, dose response, counter-screen for glucose-dependent insulin secretion activators, cell-based, INS-1E, Gaussia luciferase, luminescence, cherry-pick (AID 977606)).

| Structure (SMILES) | AC40 |
| --- | --- |
| Cc1cc(OCCCN2CCC(C(O)(c3ccccc3)c3ccccc3)CC2)ccc1Br | 3.84 µM |
| NS(=O)(=O)c1ccc(CCNc2nc3c(-c4cccc(F)c4)nnn3c3ccccc23)cc1 | 2.03 µM |
| CCN(Cc1ccccc1)S(=O)(=O)c1ccc(C(=O)N(CCCN(C)C)c2nc3cc(C)cc(C)c3s2)cc1 | 3.71 µM |
| CCCOc1ccc(/C=N/NC(=O)C(=O)Nc2ccccn2)cc1 | 18.5 µM |
| C=CCn1c(=NC(=O)c2cc(Cl)sc2Cl)sc2cc(S(N)(=O)=O)ccc21 | 4.47 µM |
| COc1ccccc1NC(=O)N1CCCCN2[C@@H](CO)[C@@H](c3ccc(C#CC4CCCC4)cc3)[C@@H]2C1 | 9.17 µM |
| C/C=C/c1ccc(C2[C@@H]3CN(C(=O)Nc4ccc(C(F)(F)F)cc4)C[C@H]2N3)cc1 (some centres undefined) | 5.83 µM |
| COc1ccc(-n2sc3ccccc3c2=O)cc1 | 0.759 µM |
| CCCCc1c(-c2ccccc2OC)ncn1Cc1ccccc1C | 11.3 µM |
| COc1ccc(CC(N)c2csc(NC(=O)Nc3ccc(C(C)C)cc3)n2)cc1 (centres undefined) | 3.58 µM |
| O=c1[nH]cnc2nc(-c3ccc(N(CCCl)CCCl)cc3)[nH]c12 | 4.26 µM |
| COC(=O)C1=C(C)N(Cc2cccc(C(F)(F)F)c2)C(=NCc2ccc(OC)cc2)NC1c1cccc(Cl)c1 (centres undefined) | 5.16 µM |
| CC(=O)Nc1cc(-c2cccc(C(=O)NCCN(C)C)c2)cn2c(-c3cccc(C(F)(F)F)c3)cnc12 | 8.13 µM |
| COc1cc2c3nnc(-c4ccccc4)c-3cn(Cc3ccccc3F)c2cc1OC | 15.6 µM |
| O=C(Nc1ccc(C(F)(F)F)cc1)N1C[C@@H]2N[C@H](C1)C2c1ccc(/C=C/c2ccccc2)cc1 (some centres undefined) | 5.24 µM and 0.87 µM |
| CC(C)(C)c1nc2ccc(Cl)cn2c1CC1CCCCC1 | 13.2 µM |
| CC(=O)Oc1ccccc1C(=O)OCCN=C1NS(=O)(=O)c2ccccc21 | > 35 µM (inactive) |
| Cc1c(C)c2c(OCC(=O)O)cc3c(c2oc1=O)CCC(C)(C)O3 | 22 µM |
| CCOc1cc(/C=N/NC(=O)CCn2nc(C)cc2C)ccc1O | 21.9 µM |
| O=C(NCC1OCCc2ccccc21)c1ccc(NC(=O)c2ccc(Cl)cc2)cc1 (centres undefined) | 6.61 µM |
| CC(=O)Oc1ccc(Cl)cc1/C=C/c1ccc2ccccc2n1 | 9.46 µM |
| Cc1nc2ccccc2c2oc(C(=O)N3CCCC(C)C3)cc12 (centres undefined) | 16 µM |
| CC1(C(=O)NCc2cccc3ccccc23)CCN1Cc1ccc(OC(F)(F)F)cc1 (centres undefined) | 9.49 µM |
| O=C(Nc1ccc2c(c1)OCO2)c1sc2cc(Cl)ccc2c1Cl | 4.98 µM |
| CC(C)(C)c1cc(NCCCn2ccnc2)n2ncc(-c3ccc(Cl)cc3)c2n1 | 4.39 µM |
| COc1ccc(S(=O)(=O)N2CCc3ccccc3C2)cc1OC | > 35 µM (inactive) |
| CCOc1ccc(-c2nnn(CC(=O)Nc3ccccc3OC)n2)cc1OCC | 7.27 µM |

| Structure (SMILES) | AC40 |
| --- | --- |
| CCOc1cc(N2CCOCC2)c(OCC)cc1NC(=O)COC(=O)c1cc2ccccc2cc1O | 4.74 µM |
| O=C(NCC1OCCc2ccccc21)c1ccc(NC(=O)c2cccc(Br)c2)cc1 (centres undefined) | 11.1 µM |
| O=C(COc1ccc2c(c1)OCO2)Nc1ccc2c(c1)oc1ccccc12 | 12.2 µM |
| Cc1nc2c(=O)n(C)c(=O)n(C)c2nc1Cl | 23.6 µM |
| COc1ccc(C(=O)Nc2ccc3c(c2)C(=O)c2ccccc2C3=O)cc1OC | > 35 µM (inactive) |
| CCCNC(=O)c1nnsc1S(=O)(=O)c1ccc(Cl)cc1 | 1.15 µM |
| OC(CNCCC1C=Nc2ccccc21)Cn1c2ccc(Cl)cc2c2cc(Cl)ccc21 (centres undefined) | 9.56 µM |
| CCc1nc2ccc(C(=O)NCCCN3CCCC3=O)cn2c1N(CCC(C)C)CCN(C)C | > 35 µM (inactive) |
| Cc1[nH]c2ccc(OC(F)(F)F)cc2c1CCNCc1ccc(Cl)cc1 | 5.89 µM |
| O=C(CCN1CCOCC1)c1ccc2c(c1)OCCO2 | 33.2 µM |
| CCOC(=O)c1cc(-c2ccc(Cl)s2)nc2c1c(C)nn2C | 13.6 µM |
| CCC(C)Sc1cccc(-c2nc3cnccn3c2NC2CCCCC2)c1 (centres undefined) | 4.26 µM |
| CCNC(=O)NC(=O)C(C)OC(=O)c1oc2ccccc2c1CSC1CCCCC1 (centres undefined) | 2.22 µM |
| Cc1ccccc1-n1sc2cc(F)ccc2c1=O | 0.539 µM |
| CC(NCC(O)COCCC12CC3CC(CC(C3)C1)C2)c1ccccc1 (centres undefined) | 8.21 µM |
| Cc1cc(C)n(-c2nc(NCCN(C)C)c3c4c(sc3n2)CCCC4)n1 | 10.7 µM |
| O=C(COc1ccccc1)Nc1sc2c(c1C(=O)NCc1cccnc1)CCCC2 | 6.97 µM |
| CCOc1ccc(-n2nnnc2-c2nc3ccccc3s2)cc1 | 12.2 µM |
| CCCCCCc1cc2cc(C(=O)Nc3cccc(OC)c3)c(=O)oc2cc1O | 13.4 µM |
| OC[C@@H]1[C@@H](c2ccc(C#CC3CCCC3)cc2)[C@@H]2CN(CCC(F)(F)F)CCCCN12 | 8.18 µM |
| CCCCc1c(-c2ccc(F)cc2F)ncn1CCc1ccccc1OC | 5.38 µM |
| O=C(NCC1OCCc2ccccc21)c1ccc(NC(=O)c2ccc(Cl)cc2Cl)cc1 (centres undefined) | 17.9 µM |
| CS(=O)(=O)c1cnc(-c2ccccc2)nc1Oc1ccc(F)cc1 | 10.9 µM |
| FC(F)(F)c1cc(CCN2CCNC[C@@H]2c2ccccc2)cc(C(F)(F)F)c1 | 7.26 µM |
| COC(=O)C1=C(C)N(Cc2cccc(C(F)(F)F)c2)C(=NCc2ccccc2)NC1c1ccc(Cl)cc1 (centres undefined) | 10.4 µM |
| CCCNC(=O)c1nnsc1S(=O)c1ccc(Cl)cc1 (centres undefined) | 1.16 µM |
| CCCCCc1c(Cc2ccccc2)ncn1CCc1ccccc1OC | 8.28 µM |
